The text below walks through data of ChEMBL document CHEMBL1129258, “Synthesis and structure-activity relationships of 2-pyridones: a novel series of potent DNA gyrase inhibitors as antibacterial agents” (J Med Chem, 1996).

Broadly, the ED50 is the dose that gives a 50% effect, or the effect in half of the subjects. One may read the Cmax as the peak of the concentration-time curve. What is called bioavailability is the share of a dose that reaches the circulation, judged against a reference dose that is usually intravenous. The half-life is the time in which the quantity being followed falls by half. Low values mean rapid decline, high ones slow decline.

Data set [1] concerns the target T1, DNA gyrase (Escherichia coli) (UniProt P0AES6+P0AES4). Briefly: In vivo efficacy against Escherichia coli JUHL by subcutaneous administration. It is filed as functional, organism-based. As to conditions: Escherichia coli K-12.
Data set [2] concerns the target T1, DNA gyrase (Escherichia coli). Briefly: In vitro antibacterial activity against gram-negative organism […] ATCC 13048. It is filed as functional. Particulars: Enterobacter aerogenes.
Data set [3] shares this target. Briefly: In vitro antibacterial against gram-negative organism Escherichia coli JUHL. It is filed as functional. Particulars: Escherichia coli K-12.
Data set [4] shares this target. Briefly: In vitro antibacterial activity against gram-negative organism Klebsiella pneumoniae ATCC 8045. It is filed as functional.
Data set [5] in a line: In vivo efficacy against Pseudomonas aeruginosa 5007 after subcutaneous administration. It is filed as functional. Particulars: Pseudomonas aeruginosa, sc; read-out: ED50.
The target in data set [6] is T1, DNA gyrase (Escherichia coli). Briefly: In vitro antibacterial activity against gram-negative organism Prov. stuartii CMX-640. Particulars: Providencia stuartii. It is filed as functional.
Data set [7] in a line: In vitro antibacterial activity against gram-negative organism Pseudomonas aeruginosa 5007. It is filed as functional. Particulars: Pseudomonas aeruginosa; read-out: MIC.
Data set [8] can be described thus: In vitro antibacterial activity against gram-negative organism Pseudomonas aeruginosa DPHD-2862. Particulars: Pseudomonas aeruginosa; read-out: MIC. It is filed as functional.
Data set [9] addresses T2, DNA gyrase (Staphylococcus aureus) (UniProt P0A0K8+P20831). Briefly: In vitro antibacterial activity against gram-positive organism Staphylococcus aureus 1775. It is filed as functional.
For data set [10], the target named is T2, DNA gyrase (Staphylococcus aureus). Briefly: In vitro antibacterial activity against gram-positive organism Staphylococcus aureus ATCC 6538p. It is filed as functional.
For data set [11] the target is unchanged. Briefly: In vitro antibacterial activity against gram-positive organism Staphylococcus aureus NCTC-10649M. It is filed as functional.
Data set [12] concerns the target T1, DNA gyrase (Escherichia coli). Briefly: In vitro antibacterial activity against gram-positive organism Streptococcus bovis A-5169. It is filed as functional. Particulars: Streptococcus equinus.
For data set [13], the system named is Streptococcus pneumoniae. Briefly: In vivo efficacy against Strep. administered. It is filed as functional.
Data set [14] has as its target T2, DNA gyrase (Staphylococcus aureus). Briefly: In vivo efficacy against Staphylococcus aureus NCTC-10649M after oral administration. It is filed as functional, organism-based.
For data set [15] the target is unchanged. Briefly: In vivo efficacy against Staphylococcus aureus NCTC-10649M after subcutaneous administration. It is filed as functional, organism-based.
The next data set deals with Streptococcus pyogenes. Briefly: In vitro antibacterial activity against gram-positive organism Streptococcus pyogenes EES61. It is filed as functional. Particulars: Streptococcus pyogenes; read-out: MIC.
Data set [16] has as its target T1, DNA gyrase (Escherichia coli). Briefly: In vitro antibacterial activity against gram-positive organism Enterococcus faecium ATCC 8043. It is filed as functional.
The test system of data set [17] is Streptococcus pneumoniae. Briefly: (§1) In vivo efficacy against Strep. administration. It is filed as functional.
The next data set has as its system Pseudomonas aeruginosa. Briefly: In vivo efficacy against Pseudomonas aeruginosa 5007 following p.o. administration.
The test system of data set [18] is Streptococcus pneumoniae. The description is as §1. It is filed as functional. The source holds these as a separate data set.
In data set [19] the target is T1, DNA gyrase (Escherichia coli). Briefly: In vivo efficacy against Escherichia coli JUHL after oral administration. Particulars: Escherichia coli K-12. It is filed as functional, organism-based.
The target is the same in data set [20]. As to conditions: Escherichia coli K-12.
Description: Concentration which causes 50% of the gyrase (Escherichia coli H560)-mediated maximal DNA cleavage.
Data set [21] can be described thus: Maximum plasma concentration in rats after an oral dose of 5 mg/kg. Particulars: rat.
Data set [22] in a line: in vivo. Particulars: rat, po, 5 mg/kg.
Description: Oral bioavailability in rat (dose 5 mg/kg)
Data set [23] in a line: in vivo. As to conditions: rat, plasma, po, 5 mg/kg.
A further data set concerns Enterococcus faecalis. Briefly: Inhibitory activity against enterococcus faecalis Van B. It is filed as functional.
The next data set relates to Escherichia coli. Briefly: In vivo efficacy against Escherichia coli JUHL by orally administered. It is filed as functional. Particulars: po.
The test system of another data set is Enterococcus faecium. Briefly: Inhibitory activity against enterococcus faecium Van A. It is filed as functional.
Where [24] appears, read: Streptococcus pneumoniae, read-out: ED50.

Converted amounts (≈) assume the structure as drawn. Where only a bound is given, the exact number is not on record here.

T2 sequence (P0A0K8 2-644 limits assumed): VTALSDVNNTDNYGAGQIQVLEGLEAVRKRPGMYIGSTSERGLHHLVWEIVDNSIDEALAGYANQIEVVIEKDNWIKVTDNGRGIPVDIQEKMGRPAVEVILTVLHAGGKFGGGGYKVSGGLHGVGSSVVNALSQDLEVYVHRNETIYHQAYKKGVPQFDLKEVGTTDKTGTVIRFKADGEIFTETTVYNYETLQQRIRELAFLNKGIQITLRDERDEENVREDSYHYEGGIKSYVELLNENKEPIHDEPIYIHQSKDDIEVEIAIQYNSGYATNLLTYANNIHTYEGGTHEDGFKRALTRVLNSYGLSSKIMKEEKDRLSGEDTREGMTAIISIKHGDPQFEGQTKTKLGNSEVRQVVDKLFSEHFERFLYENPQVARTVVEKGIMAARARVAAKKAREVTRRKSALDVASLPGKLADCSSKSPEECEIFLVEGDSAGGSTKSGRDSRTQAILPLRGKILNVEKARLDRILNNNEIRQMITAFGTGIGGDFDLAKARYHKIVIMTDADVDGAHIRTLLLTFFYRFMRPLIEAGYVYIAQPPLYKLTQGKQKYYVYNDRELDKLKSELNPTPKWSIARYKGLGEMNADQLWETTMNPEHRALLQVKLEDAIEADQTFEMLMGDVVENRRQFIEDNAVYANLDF
T2 sequence (P20831 whole entry partner): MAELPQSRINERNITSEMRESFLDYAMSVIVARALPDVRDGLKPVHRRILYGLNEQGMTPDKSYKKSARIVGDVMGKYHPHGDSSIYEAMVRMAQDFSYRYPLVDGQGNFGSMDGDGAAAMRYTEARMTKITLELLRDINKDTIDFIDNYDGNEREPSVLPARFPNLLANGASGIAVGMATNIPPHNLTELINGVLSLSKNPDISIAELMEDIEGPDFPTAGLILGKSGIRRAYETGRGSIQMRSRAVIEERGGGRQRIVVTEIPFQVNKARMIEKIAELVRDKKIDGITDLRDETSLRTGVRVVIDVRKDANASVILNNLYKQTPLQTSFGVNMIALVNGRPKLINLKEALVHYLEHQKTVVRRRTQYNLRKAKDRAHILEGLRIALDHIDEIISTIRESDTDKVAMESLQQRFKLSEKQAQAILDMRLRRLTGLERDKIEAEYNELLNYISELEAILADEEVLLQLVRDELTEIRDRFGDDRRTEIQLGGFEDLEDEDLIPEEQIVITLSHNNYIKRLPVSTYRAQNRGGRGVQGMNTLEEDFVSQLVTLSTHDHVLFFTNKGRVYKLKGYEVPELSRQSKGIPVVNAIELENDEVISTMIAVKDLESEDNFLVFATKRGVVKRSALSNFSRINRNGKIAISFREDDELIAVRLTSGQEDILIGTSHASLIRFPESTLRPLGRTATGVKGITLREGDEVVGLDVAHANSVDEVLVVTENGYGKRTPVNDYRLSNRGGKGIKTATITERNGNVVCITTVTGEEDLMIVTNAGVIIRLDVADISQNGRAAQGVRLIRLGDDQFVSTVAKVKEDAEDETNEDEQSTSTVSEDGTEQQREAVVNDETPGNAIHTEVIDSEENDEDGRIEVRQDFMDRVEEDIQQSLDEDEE

Consider `Cc1c(N2C[C@H]3CCCN[C@H]3C2)c(F)cn2c(=O)c(C(=O)O)cc(C3CC3)c12` (single isomer, unassigned), for which the ED50 in [1] is > 1 mg/kg; in data set [5], > 8 mg/kg; with Streptococcus pneumoniae [13] (setting [24]), > 8 mg/kg; in data set [14] it was 29.3 mg/kg; in data set [15], 6.1 mg/kg; with Streptococcus pneumoniae [17] (setting [24]), 32.2 mg/kg. For the same compound, the 50% effective dose (ED50) in the data set with Pseudomonas aeruginosa was > 50 mg/kg. The MIC in data set [2] was 0.05 µg/mL (≈ 0.13 µM); in [3], 0.05 µg/mL (≈ 0.13 µM); in data set [4], 0.005 µg/mL (≈ 0.013 µM); in data set [6], 1.56 µg/mL (≈ 4.05 µM); in data set [7], 0.78 µg/mL (≈ 2.02 µM); in data set [8], 12.5 µg/mL (≈ 32.4 µM). Further, the MIC in [9] turned out to be 0.78 µg/mL (≈ 2.02 µM); in data set [10], 0.05 µg/mL (≈ 0.13 µM); in data set [11], 0.05 µg/mL (≈ 0.13 µM); in [12], 0.05 µg/mL (≈ 0.13 µM); with Streptococcus pyogenes it was 0.05 µg/mL (≈ 0.13 µM); in data set [16] it was 0.1 µg/mL (≈ 0.259 µM).
In the case of `Cc1c(N2CC[C@H](O)C2)c(F)cn2c(=O)c(C(=O)O)cc(C3CC3)c12`, the MIC came to 0.1 µg/mL (≈ 0.289 µM) in data set [2]; 0.02 µg/mL (≈ 0.0577 µM) in data set [3]; 0.01 µg/mL (≈ 0.0289 µM) in data set [4]; 0.39 µg/mL (≈ 1.13 µM) in data set [6]; 0.39 µg/mL (≈ 1.13 µM) in data set [7]; 3.1 µg/mL (≈ 8.95 µM) in data set [8]. Further, the MIC in [9] was determined as 0.39 µg/mL (≈ 1.13 µM); in data set [10] it was 0.005 µg/mL (≈ 0.0144 µM); in [11], 0.005 µg/mL (≈ 0.0144 µM); in data set [12], 0.1 µg/mL (≈ 0.289 µM); in data set [16], 0.05 µg/mL (≈ 0.144 µM). Further, the median effective dose (ED50) with Streptococcus pneumoniae [18] was > 2 mg/kg; in data set [14], 5.3 mg/kg; in data set [15], 1.5 mg/kg; in the data set on Streptococcus pneumoniae [17], > 10 mg/kg.
Turning to `Cc1c(N2CC[C@@H]([C@H](C)N)C2)c(F)cn2c(=O)c(C(=O)O)cc(C3CC3)c12`, the ED50 is 3.3 mg/kg in [19]; 0.5 mg/kg in data set [1]; 1 mg/kg in data set [5]; < 1.3 mg/kg in the data set with Streptococcus pneumoniae [13]; 7.2 mg/kg in data set [14]; < 0.2 mg/kg in [15]. The ED50 was < 3.1 mg/kg in the data set with Streptococcus pneumoniae [17] and 13 mg/kg in the data set with Pseudomonas aeruginosa. The MIC in data set [2] was 0.01 µg/mL (≈ 0.0268 µM); in data set [3], < 0.001 µg/mL; in [4] it was 0.005 µg/mL (≈ 0.0134 µM); in data set [6] it was 0.2 µg/mL (≈ 0.536 µM); in [7], 0.05 µg/mL (≈ 0.134 µM); in data set [8] it was 1.56 µg/mL (≈ 4.18 µM). Moreover, the MIC in [9] was 0.05 µg/mL (≈ 0.134 µM); in data set [10], < 0.001 µg/mL; in data set [11], < 0.001 µg/mL; in data set [12], < 0.001 µg/mL; in the data set on Streptococcus pyogenes, < 0.001 µg/mL; in data set [16] it was < 0.001 µg/mL. Also, in data set [20], the CC50 was found to be 0.3 µg/mL (≈ 0.803 µM).
On to `Cc1c(N2CC[C@@H](N)C2)c(F)cn2c(=O)c(C(=O)O)cc(C3CC3)c12`, for which the highest level in data set [21] (Cmax) was 80 ng/mL. In addition, the ED50 in data set [19] was 1 mg/kg; in [1], 0.3 mg/kg; in [5], 2.4 mg/kg; in data set [14], < 3.1 mg/kg; in [15], 0.9 mg/kg; in the data set on Pseudomonas aeruginosa, 6.2 mg/kg. Also, the MIC in [2] was 0.01 µg/mL (≈ 0.029 µM); in data set [3], 0.005 µg/mL (≈ 0.0145 µM); in data set [4], 0.005 µg/mL (≈ 0.0145 µM); in data set [6], 0.2 µg/mL (≈ 0.579 µM); in data set [7], 0.05 µg/mL (≈ 0.145 µM); in data set [8] it was 1.56 µg/mL (≈ 4.52 µM). The MIC in data set [9] turned out to be 1.56 µg/mL (≈ 4.52 µM); in data set [10] it was 0.01 µg/mL (≈ 0.029 µM); in [11] it was 0.02 µg/mL (≈ 0.0579 µM); in [12], 0.1 µg/mL (≈ 0.29 µM); with Streptococcus pyogenes, 0.05 µg/mL (≈ 0.145 µM); in [16], 0.05 µg/mL (≈ 0.145 µM). Further, the CC50 in data set [20] turned out to be 0.15 µg/mL (≈ 0.434 µM). In the data set “in vivo [22]”, the bioavailability turned out to be 10%. The compound also showed a half-life in the data set “in vivo [23]” of 1.1 h.
Consider `Cc1c(N2C[C@@H](C)N[C@@H](C)C2)c(F)cn2c(=O)c(C(=O)O)cc(C3CC3)c12`, for which the ED50 in data set [19] is 2.1 mg/kg; in [1] it was 1.3 mg/kg; in [5] it was > 8 mg/kg; in the data set on Streptococcus pneumoniae [13] it was > 8 mg/kg; in [14], 4.8 mg/kg; in [15], 4.4 mg/kg. Also, the ED50 worked out at 49.4 mg/kg in the data set on Streptococcus pneumoniae [17] and 12.7 mg/kg in the data set with Pseudomonas aeruginosa. The MIC in data set [2] worked out at 0.1 µg/mL (≈ 0.268 µM); in [3] it was 0.02 µg/mL (≈ 0.0536 µM); in [4], 0.02 µg/mL (≈ 0.0536 µM); in data set [6] it was 3.1 µg/mL (≈ 8.3 µM); in data set [7], 1.56 µg/mL (≈ 4.18 µM); in [8] it was 12.5 µg/mL (≈ 33.5 µM). Besides, the MIC was 6.2 µg/mL (≈ 16.6 µM) in data set [9]; 0.1 µg/mL (≈ 0.268 µM) in data set [10]; 0.1 µg/mL (≈ 0.268 µM) in [11]; 0.78 µg/mL (≈ 2.09 µM) in [12]; 0.39 µg/mL (≈ 1.04 µM) in the data set on Streptococcus pyogenes; 0.39 µg/mL (≈ 1.04 µM) in data set [16]. In addition, in [20], the CC50 was 1.8 µg/mL (≈ 4.82 µM).
As for `CNC1CCN(c2c(F)cn3c(=O)c(C(=O)O)cc(C4CC4)c3c2C)C1` (centres undefined), the MIC with Enterococcus faecalis is 0.06 µg/mL (≈ 0.167 µM); in data set [2], 0.02 µg/mL (≈ 0.0556 µM); against Enterococcus faecium it was 0.5 µg/mL (≈ 1.39 µM); in data set [3] it was 0.005 µg/mL (≈ 0.0139 µM); in data set [4], 0.005 µg/mL (≈ 0.0139 µM); in data set [6], 0.39 µg/mL (≈ 1.09 µM). The MIC was found to be 0.2 µg/mL (≈ 0.556 µM) in data set [7]; 1.56 µg/mL (≈ 4.34 µM) in [8]; 1.56 µg/mL (≈ 4.34 µM) in data set [9]; 0.02 µg/mL (≈ 0.0556 µM) in data set [10]; 0.02 µg/mL (≈ 0.0556 µM) in data set [11]; 0.1 µg/mL (≈ 0.278 µM) in data set [12]. Moreover, the results for the MIC (in the data set with Streptococcus pyogenes; in data set [16]) were 0.05 µg/mL (≈ 0.139 µM) and 0.1 µg/mL (≈ 0.278 µM), respectively. Further, the ED50 with Escherichia coli was 1.1 mg/kg; in data set [1], 0.7 mg/kg; in [5] it was 2.8 mg/kg; in data set [14] it was < 3.1 mg/kg; in data set [15], 0.9 mg/kg; in the data set with Pseudomonas aeruginosa, 7.2 mg/kg. This compound also came in with a CC50 in data set [20] of 0.08 µg/mL (≈ 0.223 µM).
